The values that follow come from ChEMBL document CHEMBL4373743, “Selective apoptosis-inducing activity of synthetic hydrocarbon-stapled SOS1 helix with d-amino acids in H358 cancer cells expressing KRASG12C” (Eur J Med Chem, 2020).

The subject of experiment [1] is NCI-H358. The experiment can be described thus: Induction of cell cycle arrest in human NCI-H358 cells harboring KRAS G12C mutant assessed as reduction in cyclin B1 protein expression at 40 uM incubated for 24 hrs by Western blot analysis. It is filed as functional, cell-based.
Experiment [2] deals with NCI-H358. The experiment can be described thus: Induction of apoptosis in human NCI-H358 cells harboring KRAS G12C mutant assessed as increase in caspase3 protein level at 40 uM incubated for 24 hrs by Western blot analysis. It is filed as functional, cell-based.
The test system of experiment [3] is A549. The experiment can be described thus: Induction of apoptosis in human A549 cells harboring KRAS G12S mutant assessed as viable cells at 2.5 uM incubated for 24 hrs by Annexin V-FITC/PI staining based flow cytometric analysis (reference value: 68.3%). Conditions: A549, 24 h, read-out: Activity. In kind it is functional.
Experiment [4] relates to NCI-H358. The experiment can be described thus: Induction of apoptosis in human NCI-H358 cells harboring KRAS G12C mutant assessed as viable cells at 10 uM incubated for 24 hrs by Annexin V-FITC/PI staining based flow cytometric analysis (reference value: 67.2%). Conditions: NCI-H358, 24 h, read-out: Activity. It is filed as functional.
Experiment [5] concerns NCI-H358. The experiment can be described thus: Induction of apoptosis in human NCI-H358 cells harboring KRAS G12C mutant assessed as necrotic cells at 20 uM incubated for 24 hrs by Annexin V-FITC/PI staining based flow cytometric analysis (reference value: 0.28%). It is filed as functional.
Experiment [6] concerns NCI-H358. The experiment can be described thus: Induction of apoptosis in human NCI-H358 cells harboring KRAS G12C mutant assessed as late apoptotic cells at 2.5 uM incubated for 24 hrs by Annexin V-FITC/PI staining based flow cytometric analysis (reference value: 28.2%). In kind it is functional.
The test system of experiment [7] is A549. In words: Induction of apoptosis in human A549 cells harboring KRAS G12S mutant assessed as viable cells at 20 uM incubated for 24 hrs by Annexin V-FITC/PI staining based flow cytometric analysis (reference value: 68.3%). It is filed as functional. The conditions noted are these: A549, 24 h, read-out: Activity.
The test system of experiment [8] is NCI-H358. The experiment can be described thus: Induction of apoptosis in human NCI-H358 cells harboring KRAS G12C mutant assessed as viable cells at 20 uM incubated for 24 hrs by Annexin V-FITC/PI staining based flow cytometric analysis (reference value: 67.2%). In kind it is functional. Conditions: NCI-H358, 24 h, read-out: Activity.
The test system of experiment [9] is NCI-H358. In words: Induction of apoptosis in human NCI-H358 cells harboring KRAS G12C mutant assessed as early apoptotic cells at 20 uM incubated for 24 hrs by Annexin V-FITC/PI staining based flow cytometric analysis (reference value: 4.34%). It is filed as functional.
Experiment [10] has as its system A549. The experiment can be described thus: Induction of apoptosis in human A549 cells harboring KRAS G12S mutant assessed as necrotic cells at 10 uM incubated for 24 hrs by Annexin V-FITC/PI staining based flow cytometric analysis (reference value: 0.16%). It is filed as functional.
Experiment [11] relates to A549. In words: Induction of apoptosis in human A549 cells harboring KRAS G12S mutant assessed as early apoptotic cells at 2.5 uM incubated for 24 hrs by Annexin V-FITC/PI staining based flow cytometric analysis (reference value: 6.09%). In kind it is functional.
For experiment [12], the system named is A549. In words: Induction of cell cycle arrest in human A549 cells harboring KRAS G12S mutant assessed as reduction in CDK1 protein expression at 40 uM incubated for 24 hrs by Western blot analysis. In kind it is functional, cell-based.
The subject of experiment [13] is A549. In words: Induction of apoptosis in human A549 cells harboring KRAS G12S mutant assessed as viable cells at 10 uM incubated for 24 hrs by Annexin V-FITC/PI staining based flow cytometric analysis (reference value: 68.3%). Conditions: A549, 24 h, read-out: Activity. It is filed as functional.

Molecules are shown by their SMILES. Calls of active or inactive are those of the source. The rule behind the calls is not given here. Bridge positions count the residues as written; N and C are the ends. Square brackets hold non-standard residues; d marks the D form. Peptide text beside a SMILES is read from it. S5 = C=CCCC[C@](C)(N)C(=O)O

Consider `CC[C@H](C)[C@H](NC(=O)CNC(=O)[C@H](Cc1ccccc1)NC(=O)[C@H](Cc1ccccc1)NC(=O)[C@H](CCCNC(=N)N)NC(=O)[C@H](CCCNC(=N)N)NC(C)=O)C(=O)N[C@@]1(C)CCC/C=C\CCC[C@@](C)(C(=O)N[C@@H](CC(C)C)C(=O)N[C@@H](CCCCN)C(=O)N[C@H](C(=O)N[C@@H](CCC(=O)O)C(=O)N[C@@H](CCC(=O)O)C(=O)NCC(=O)N[C@@H](CC(N)=O)C(=O)O)[C@@H](C)O)NC(=O)[C@H](CC(N)=O)NC(=O)[C@H](CC(=O)O)NC(=O)[C@H]([C@@H](C)O)NC(=O)[C@H](CC(C)C)NC(=O)[C@H](CC(=O)O)NC1=O` (Ac-RRFFGI[S5]DLTDN[S5]LKTEEGN-OH; staple (Z) 7-13), for which the outcome with NCI-H358 [1] and in the experiment on NCI-H358 [2] was Active. Moreover, the viability at 2.5 µM in the experiment on A549 [3] came out at 60.4%. The viability at 10 µM was 52.5% in the experiment with NCI-H358 [4] and 67.6% in the experiment with A549 [13]. Further, the Activity in the experiment with NCI-H358 [5] was 0.21%; in the experiment on NCI-H358 [6], 33%; in the experiment with NCI-H358 [9], 6.49%; with A549 [10], 0.5%; in the experiment on A549 [11] it was 2.65%. Moreover, the viability at 20 µM in the experiment with A549 [7] came to 67.3%; in the experiment with NCI-H358 [8], 46.7%. The outcome in the experiment with A549 [12] was inactive.
